Results taken from patent US4877619A, “Liposomal vesicles for intraperitoneal administration of therapeutic agents” (priority 1987, dated 1989).
Like-named read-outs stand apart in the source and are kept apart here.

Key:
[1] = assay type: physicochemical
Experimental: 3.9 ml of the Na-IBF solution is injected into each flask containing lipid film. The flasks are vortex-stirred for 40 to 60 minutes in a 65° C. water bath under nitrogen. (The nitrogen purge is first passed through a 0.22 micron filter.) To the contents of each flask is added sterile, pyrogen-free phosphate buffered saline, and the flasks are centrifuged for 6 to 10 minutes at 15,000 rpm. This washing procedure is repeated for a total of five times to remove unencapsulated Na-IBF. The contents of the flasks are then combined and PBS (5 mM PO4^3- in 0.15 N NaCl) is added to a total of 32 ml. The liposome suspension thus produced comprises ILDVs of about 1 micron or larger in size suspended in the PBS.

[2] = rat, in vivo, ip
Experimental: At the times indicated in the table, the animals were anesthetized, exsanguinated and the peritoneal cavities lavaged three time with 20 ml phosphate-buffered saline. The lavage fluid was pooled and centrifuged at low speed. "Peritoneal fluid" refers to fluid lavaged and pooled from the peritoneal cavity and contains small sized vesicles. "Peritoneal pellet" refers to the pelleted portion of the lavaged peritoneal fluid, and contains cellular matter (predominately peritoneal macrophage) and large vesicles. The remaining tissues were collected, washed, blotted, weighed and distributed into tubes for gamma counting.

| Compound | Storage stability of liposome suspension [1] | Clearance after intraperitoneal injection [2] | Feces ([2]; 1 h) [% Inj. Dose] | TOTAL ([2]; 1 h) [% Inj. Dose] | Urine ([2]; 1 h) [% Inj. Dose] | Feces ([2]; 2 h) | TOTAL ([2]; 2 h) [% Inj. Dose] | Urine ([2]; 2 h) [% Inj. Dose] | Feces ([2]; 6 h) [% Inj. Dose] | TOTAL ([2]; 6 h) [% Inj. Dose] | Urine ([2]; 6 h) [% Inj. Dose] | Feces ([2]; 24 h) [% Inj. Dose] | TOTAL ([2]; 24 h) [% Inj. Dose] | Urine ([2]; 24 h) [% Inj. Dose] |
| --- | --- | --- | --- | --- | --- | --- | --- | --- | --- | --- | --- | --- | --- | --- |
| Sodium Ibuprofenate | storage-stable for a period of several months | – | – | – | – | – | – | – | – | – | – | – | – | – |
| O=C([O-])CN(CCN(CC(=O)[O-])CC(=O)[O-])CC(=O)[O-].[111In+3] [^111 In-EDTA, Indium-III chelated to ethylenediamine tetracetic acid] | – | rapid clearance from the peritoneal cavity and from the whole body | 4.6 | 32.58 | 19 | .02 % Inj. Dose | 76.73 | 73 | 7.6 | 71.27 | 60.2 | 16.83 | 33.91 | 14.05 |
